Experimental data reported in the supplement of paper PMC10627819.

Columns and labels:
S. aureus DSM 20231 [1] = assay: Bliss interaction score (quartile over a dose matrix) (fitness difference); higher = more antagonism (negative = synergy)
In short: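 Growth was read as OD595 when cultures entered stationary phase, and each value was divided by the plate's robust no-drug mean and capped at 1. This normalised ratio is the fitness value, and fitness for each single drug came from the combination data. The Bliss score subtracts the expected fitness, taken as the product, from the observed fitness and is given as quartiles across technical, biological and donor/recipient replicates.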

S. aureus DSM 20231 [2] = assay: fitness (endpoint OD595 vs no drug) (fraction); higher = more growth
In short: (§1)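 Fitness was defined as the optical density at the transition into stationary phase relative to the robust mean of no-drug control wells. Values were capped at 1. Cultures were started at OD595 0.01 in 384-well plates (30 µl, or 55 µl for S. pneumoniae) in TSB, LB Lennox or CY at 37 °C. OD595 was recorded every 30 min over 14 h, with the first reading subtracted as background.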

S. pneumoniae D39V = assay: as above
In short: as §1

S. aureus Newman = assay: as above
In short: as §1
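Wherever Bliss interaction score (quartile over a dose matrix) is given: first quartile when negative (synergy) and third quartile when positive (antagonism).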

C[C@H]1COc2c(N3CCN(C)CC3)c(F)cc3c(=O)c(C(=O)O)cn1c23 [Levofloxacin] + Cc1c(Cl)cccc1Nc1ccccc1C(=O)O [Tolfenamic]
Details	Bliss interaction score
S. aureus DSM 20231 [1]	-0.164

CC1(C)S[C@@H]2[C@H](NC(=O)[C@H](N)c3ccc(O)cc3)C(=O)N2[C@H]1C(=O)O [Amoxicillin] + CO[C@@]12[C@H](COC(N)=O)C3=C(C(=O)C(C)=C(N)C3=O)N1C[C@@H]1N[C@@H]12 [Mitomycin C]
Details	fitness
S. aureus DSM 20231 [2], first compound 0.0625 µg/mL, partner 0.0156 µg/mL	0.522
S. aureus DSM 20231 [2], first compound 0.0625 µg/mL, partner 0.0312 µg/mL	0.467
S. aureus DSM 20231 [2], first compound 0.0625 µg/mL, partner 0.0625 µg/mL	0.31
S. aureus DSM 20231 [2], first compound 0.125 µg/mL, partner 0.0156 µg/mL	0.359
S. aureus DSM 20231 [2], first compound 0.125 µg/mL, partner 0.0312 µg/mL	0.226
S. aureus DSM 20231 [2], first compound 0.125 µg/mL, partner 0.0625 µg/mL	0.0925
S. aureus DSM 20231 [2], first compound 0.25 µg/mL, partner 0.0156 µg/mL	0.0215
S. aureus DSM 20231 [2], first compound 0.25 µg/mL, partner 0.0312 µg/mL	0.0317
S. aureus DSM 20231 [2], first compound 0.25 µg/mL, partner 0.0625 µg/mL	0.0251
S. aureus DSM 20231 [2], first compound 0.5 µg/mL, partner 0.0156 µg/mL	0.0035
S. aureus DSM 20231 [2], first compound 0.5 µg/mL, partner 0.0312 µg/mL	0.0009
S. aureus DSM 20231 [2], first compound 0.5 µg/mL, partner 0.0625 µg/mL	0.0008
S. aureus Newman, first compound 0.0625 µg/mL, partner 0.0156 µg/mL	0.67
S. aureus Newman, first compound 0.0625 µg/mL, partner 0.0312 µg/mL	0.646
S. aureus Newman, first compound 0.0625 µg/mL, partner 0.0625 µg/mL	0.502
S. aureus Newman, first compound 0.125 µg/mL, partner 0.0156 µg/mL	0.714
S. aureus Newman, first compound 0.125 µg/mL, partner 0.0312 µg/mL	0.649
S. aureus Newman, first compound 0.125 µg/mL, partner 0.0625 µg/mL	0.465
S. aureus Newman, first compound 0.25 µg/mL, partner 0.0312 µg/mL	0.627
S. pneumoniae D39V, first compound 0.0008 µg/mL, partner 0.001075 µg/mL	≥ 1
S. pneumoniae D39V, first compound 0.0008 µg/mL, partner 0.00215 µg/mL	0.895
S. pneumoniae D39V, first compound 0.0008 µg/mL, partner 0.0043 µg/mL	0.799
S. pneumoniae D39V, first compound 0.0015 µg/mL, partner 0.001075 µg/mL	0.994
S. pneumoniae D39V, first compound 0.0015 µg/mL, partner 0.002 µg/mL	0.778
S. pneumoniae D39V, first compound 0.0015 µg/mL, partner 0.00215 µg/mL	0.876
S. pneumoniae D39V, first compound 0.0015 µg/mL, partner 0.004 µg/mL	0.836
S. pneumoniae D39V, first compound 0.0015 µg/mL, partner 0.0043 µg/mL	0.816
S. pneumoniae D39V, first compound 0.0015 µg/mL, partner 0.008 µg/mL	0.674
S. pneumoniae D39V, first compound 0.003 µg/mL, partner 0.001075 µg/mL	0.938
S. pneumoniae D39V, first compound 0.003 µg/mL, partner 0.002 µg/mL	0.702
S. pneumoniae D39V, first compound 0.003 µg/mL, partner 0.00215 µg/mL	0.832
S. pneumoniae D39V, first compound 0.003 µg/mL, partner 0.004 µg/mL	0.728
S. pneumoniae D39V, first compound 0.003 µg/mL, partner 0.0043 µg/mL	0.761
S. pneumoniae D39V, first compound 0.003 µg/mL, partner 0.008 µg/mL	0.617

fitness, S. pneumoniae D39V, one replicate
Details	partner 0.002 µg/mL	partner 0.004 µg/mL	partner 0.008 µg/mL
first compound 0.0008 µg/mL	0.785	0.79	0.739
first compound 0.006 µg/mL	0.269	0.349	0.17

CCCSc1nc(N[C@@H]2C[C@H]2c2ccc(F)c(F)c2)c2nnn([C@@H]3C[C@H](OCCO)[C@@H](O)[C@H]3O)c2n1 [Ticagrelor] + CN[C@H](CC(C)C)C(=O)N[C@H]1C(=O)N[C@@H](CC(N)=O)C(=O)N[C@H]2C(=O)N[C@H]3C(=O)N[C@H](C(=O)N[C@H](C(=O)O)c4cc(O)cc(O)c4-c4cc3ccc4O)[C@H](O)c3ccc(c(Cl)c3)Oc3cc2cc(c3O[C@@H]2O[C@H](CO)[C@@H](O)[C@H](O)[C@H]2O[C@H]2C[C@](C)(N)[C@H](O)[C@H](C)O2)Oc2ccc(cc2Cl)[C@H]1O [Vancomycin]
Details	Bliss interaction score
S. aureus DSM 20231 [1]	0.257

CO/N=C(\C(=O)N[C@@H]1C(=O)N2C(C(=O)[O-])=C(C[N+]3(C)CCCC3)CS[C@H]12)c1csc(N)n1 [Cefepime] + CO[C@@]12[C@H](COC(N)=O)C3=C(C(=O)C(C)=C(N)C3=O)N1C[C@@H]1N[C@@H]12 [Mitomycin C]
Details	fitness
S. aureus DSM 20231 [2], first compound 0.125 µg/mL, partner 0.0156 µg/mL	0.685
S. aureus DSM 20231 [2], first compound 0.125 µg/mL, partner 0.0312 µg/mL	0.653
S. aureus DSM 20231 [2], first compound 0.125 µg/mL, partner 0.0625 µg/mL	0.568
S. aureus DSM 20231 [2], first compound 0.25 µg/mL, partner 0.0156 µg/mL	0.63
S. aureus DSM 20231 [2], first compound 0.25 µg/mL, partner 0.0312 µg/mL	0.617
S. aureus DSM 20231 [2], first compound 0.25 µg/mL, partner 0.0625 µg/mL	0.578
S. aureus DSM 20231 [2], first compound 0.5 µg/mL, partner 0.0156 µg/mL	0.632
S. aureus DSM 20231 [2], first compound 0.5 µg/mL, partner 0.0312 µg/mL	0.572
S. aureus DSM 20231 [2], first compound 0.5 µg/mL, partner 0.0625 µg/mL	0.549
S. aureus Newman, first compound 0.125 µg/mL, partner 0.0156 µg/mL	0.749
S. aureus Newman, first compound 0.125 µg/mL, partner 0.0312 µg/mL	0.661
S. aureus Newman, first compound 0.125 µg/mL, partner 0.0625 µg/mL	0.556
S. aureus Newman, first compound 0.25 µg/mL, partner 0.0156 µg/mL	0.661
S. aureus Newman, first compound 0.25 µg/mL, partner 0.0312 µg/mL	0.592
S. aureus Newman, first compound 0.25 µg/mL, partner 0.0625 µg/mL	0.483
S. aureus Newman, first compound 0.5 µg/mL, partner 0.0156 µg/mL	0.621
S. aureus Newman, first compound 0.5 µg/mL, partner 0.0312 µg/mL	0.578
S. aureus Newman, first compound 0.5 µg/mL, partner 0.0625 µg/mL	0.522
S. pneumoniae D39V, first compound 0.007 µg/mL, partner 0.002 µg/mL	0.88
S. pneumoniae D39V, first compound 0.007 µg/mL, partner 0.004 µg/mL	0.803
S. pneumoniae D39V, first compound 0.007 µg/mL, partner 0.008 µg/mL	0.68
S. pneumoniae D39V, first compound 0.0078 µg/mL, partner 0.001075 µg/mL	0.976
S. pneumoniae D39V, first compound 0.0078 µg/mL, partner 0.00215 µg/mL	0.924
S. pneumoniae D39V, first compound 0.0078 µg/mL, partner 0.0043 µg/mL	0.867
S. pneumoniae D39V, first compound 0.014 µg/mL, partner 0.002 µg/mL	0.859
S. pneumoniae D39V, first compound 0.014 µg/mL, partner 0.004 µg/mL	0.819
S. pneumoniae D39V, first compound 0.014 µg/mL, partner 0.008 µg/mL	0.669
S. pneumoniae D39V, first compound 0.0155 µg/mL, partner 0.001075 µg/mL	0.98
S. pneumoniae D39V, first compound 0.0155 µg/mL, partner 0.00215 µg/mL	0.931
S. pneumoniae D39V, first compound 0.0155 µg/mL, partner 0.0043 µg/mL	0.857
S. pneumoniae D39V, first compound 0.028 µg/mL, partner 0.002 µg/mL	0.716
S. pneumoniae D39V, first compound 0.028 µg/mL, partner 0.004 µg/mL	0.7
S. pneumoniae D39V, first compound 0.028 µg/mL, partner 0.008 µg/mL	0.628
S. pneumoniae D39V, first compound 0.031 µg/mL, partner 0.001075 µg/mL	0.708
S. pneumoniae D39V, first compound 0.031 µg/mL, partner 0.00215 µg/mL	0.647
S. pneumoniae D39V, first compound 0.031 µg/mL, partner 0.0043 µg/mL	0.63

CCCCCCCCCC(=O)N[C@@H](Cc1c[nH]c2ccccc12)C(=O)N[C@H](CC(N)=O)C(=O)N[C@@H](CC(=O)O)C(=O)N[C@@H]1C(=O)NCC(=O)N[C@@H](CCCN)C(=O)N[C@@H](CC(=O)O)C(=O)N[C@H](C)C(=O)N[C@@H](CC(=O)O)C(=O)NCC(=O)N[C@H](CO)C(=O)N[C@@H]([C@H](C)CC(=O)O)C(=O)N[C@@H](CC(=O)c2ccccc2N)C(=O)O[C@@H]1C [Daptomycin] + CO/N=C(\C(=O)N[C@@H]1C(=O)N2C(C(=O)[O-])=C(C[N+]3(C)CCCC3)CS[C@H]12)c1csc(N)n1 [Cefepime]
fitness
Details	first compound 0.125 µg/mL	first compound 0.25 µg/mL	first compound 0.5 µg/mL	first compound 1 µg/mL	first compound 2 µg/mL	first compound 4 µg/mL
S. aureus DSM 20231 [2], partner 0.125 µg/mL	–	–	0.846	0.938	0.934	–
S. aureus DSM 20231 [2], partner 0.25 µg/mL	–	–	0.88	0.89	0.887	–
S. aureus DSM 20231 [2], partner 0.5 µg/mL	–	–	0.869	0.877	0.844	–
S. aureus Newman, partner 0.125 µg/mL	0.935	0.941	0.967	–	–	–
S. aureus Newman, partner 0.25 µg/mL	0.854	0.874	0.874	–	–	–
S. aureus Newman, partner 0.5 µg/mL	0.8	0.797	0.799	–	–	–
S. pneumoniae D39V, partner 0.007 µg/mL	–	–	–	0.917	0.942	0.476
S. pneumoniae D39V, partner 0.0078 µg/mL	–	–	–	≥ 1	≥ 1	0.964
S. pneumoniae D39V, partner 0.014 µg/mL	–	–	–	0.887	0.938	0.57
S. pneumoniae D39V, partner 0.0155 µg/mL	–	–	–	0.982	≥ 1	0.965
S. pneumoniae D39V, partner 0.028 µg/mL	–	–	–	0.813	0.82	0.48
S. pneumoniae D39V, partner 0.031 µg/mL	–	–	–	0.584	0.606	0.599
